# Measured values taken from patent US4197312A, “Alkali metal and alkaline earth metal salts of benzoylacetonitriles” (American Cyanamid Company, priority 1978, dated 1980).
# How the values were obtained:
# [1] = tested on: Adjuvant induced arthritis; experiment: Adjuvant induced arthritis in the rat (primary lesion, paw swelling); type: in vivo, rat (Royal Hart, Wistar strain); details: once daily days 0 to 13
# Procedure: Adjuvant induced arthritis in the rat
# Groups of three Royal Hart, Wistar strain rats weighing 200±10 g. each were injected intradermally in the right hind paw with Freund's adjuvant (dried human tubercle bacilli in a mineral oil vehicle) at a dose of 2 mg./kg. of body weight. The test compounds were administered orally in a 1.5% starch vehicle at various doses once daily on days 0 to 13 post challenge. Control rats were treated in a similar manner, but given only starch vehicle. On the 14th and 21st day post challenge the diameter of the injected paw was measured by micrometer caliper. The volume of inflamed paws were estimated from these measurements and the effects of each compound are expressed as percent inhibition of swelling was compared to controls. Table I records the results of these tests conducted with representative compounds of this invention and known anti-inflammatory agents. The active compounds of this invention suppress the progression of the arthritis and associated joint deterioration.
# [2] = tested on: arthritic paw swelling; joint and bone deterioration; details: literature (S. Wong et al.; G. R. Bobalick et al.); cited from earlier work
smiles,measurement,setting,value
"N#CCC(=O)c1ccccc1.[Na] [Benzoylacetonitrile sodium salt, Benzoylacetonitrile, sodium salt]",(Primary Lesion) % Inhibition of Swelling Day 14,[1]; oral 50 mg./kg.,59%
same,(Primary Lesion) % Inhibition of Swelling Day 21,[1]; oral 50 mg./kg.,45%
"N#CCC(=O)c1ccc(F)cc1.[Na] [p-Fluorobenzoylacetonitrile sodium salt, p-Fluorobenzoylacetonitrile, sodium salt]",(Primary Lesion) % Inhibition of Swelling Day 14,[1]; oral 50 mg./kg.,53%
same,(Primary Lesion) % Inhibition of Swelling Day 21,[1]; oral 50 mg./kg.,32%
CC(=O)Oc1ccccc1C(=O)O [Aspirin],(Primary Lesion) % Inhibition of Swelling Day 14,[1]; oral 50 mg./kg.,23%
same,(Primary Lesion) % Inhibition of Swelling Day 21,[1]; oral 50 mg./kg.,3%
same,(Primary Lesion) % Inhibition of Swelling Day 14,[1]; oral 100 mg./kg.,36%
same,(Primary Lesion) % Inhibition of Swelling Day 21,[1]; oral 100 mg./kg.,13%
same,(Primary Lesion) % Inhibition of Swelling Day 14,[1]; oral 200 mg./kg.,48%
same,(Primary Lesion) % Inhibition of Swelling Day 21,[1]; oral 200 mg./kg.,27%
same,(Primary Lesion) % Inhibition of Swelling Day 14,[1]; oral 400 mg./kg.,73%
same,(Primary Lesion) % Inhibition of Swelling Day 21,[1]; oral 400 mg./kg.,48%
COc1ccc2c(c1)c(CC(=O)O)c(C)n2C(=O)c1ccc(Cl)cc1 [Indomethacin],(Primary Lesion) % Inhibition of Swelling Day 14,[1]; oral 0.25 mg./kg.,30%
same,(Primary Lesion) % Inhibition of Swelling Day 21,[1]; oral 0.25 mg./kg.,4%
same,(Primary Lesion) % Inhibition of Swelling Day 14,[1]; oral 0.5 mg./kg.,40%
same,(Primary Lesion) % Inhibition of Swelling Day 21,[1]; oral 0.5 mg./kg.,20%
same,(Primary Lesion) % Inhibition of Swelling Day 14,[1]; oral 1 mg./kg.,46%
same,(Primary Lesion) % Inhibition of Swelling Day 21,[1]; oral 1 mg./kg.,19%
same,(Primary Lesion) % Inhibition of Swelling Day 14,[1]; oral 2 mg./kg.,51%
same,(Primary Lesion) % Inhibition of Swelling Day 21,[1]; oral 2 mg./kg.,24%
same,arthritic paw swelling,[2],inhibit arthritic paw swelling
same,joint and bone deterioration,[2],prevent joint and bone deterioration
CCCCC1C(=O)N(c2ccccc2)N(c2ccccc2)C1=O [Phenylbutazone],(Primary Lesion) % Inhibition of Swelling Day 14,[1]; oral 18.5 mg./kg.,31%
same,(Primary Lesion) % Inhibition of Swelling Day 21,[1]; oral 18.5 mg./kg.,7%
same,(Primary Lesion) % Inhibition of Swelling Day 14,[1]; oral 37.5 mg./kg.,56%
same,(Primary Lesion) % Inhibition of Swelling Day 21,[1]; oral 37.5 mg./kg.,14%
same,(Primary Lesion) % Inhibition of Swelling Day 14,[1]; oral 75 mg./kg.,62%
same,(Primary Lesion) % Inhibition of Swelling Day 21,[1]; oral 75 mg./kg.,28%
same,(Primary Lesion) % Inhibition of Swelling Day 14,[1]; oral 150 mg./kg.,75%
same,(Primary Lesion) % Inhibition of Swelling Day 21,[1]; oral 150 mg./kg.,44%
